Experiments:
[1] = solubility of the active substance; assay type: physicochemical
Description: The solubility of a compound may be determined by dispersing an excess of the compound at ambient temperature in the medium in question and shaking it vigorously for a defined length of time (approx. 1 to 24 h) until equilibrium is achieved. After filtration the pH is determined in the clear filtrate and the concentration of the dissolved substance is determined by spectral photometry or some other suitable analytical process.

[2] = phase I study, plasma levels on increasing the dose; assay type: in vivo, human
From the text: Generally increasing the dose in order to compensate for the reduced bioavailability in patients is frequently undesirable because of the waste of active substance and the greater burden on the patient and the associated risk of side effects, for example, or even totally impossible, on the grounds of drug safety.

| Structure (SMILES) | solubility in an acidic medium [1] | plasma levels achieved with 200 mg ([2]; 200 mg compared with 600 mg) | higher plasma levels on increasing the dose ([2]; dose increased from 100 to 600 mg) |
| --- | --- | --- | --- |
| CCCc1nc2c(C)cc(-c3nc4ccccc4n3C)cc2n1Cc1ccc(-c2ccccc2C(=O)O)cc1 [telmisartan] | readily soluble |  |  |
| O=C(O)CCC/C=C(\c1ccc(CCNS(=O)(=O)c2ccc(Cl)cc2)cc1)c1cccnc1 [DT-TX 30] |  | equal to those obtained with 600 mg | about 50% |
